One assay concerns the target T1, human V2 receptor (Homo sapiens, UniProt P30518).
T1 construct: expressed in transfected cells; host or cells: CHO K1 (ATCC) expressing firefly luciferase under a CRE-responsive promoter
Nature of the assay: Cellular in vitro assay for determining vasopressin receptor activity, V2 receptor cell line (CRE-luciferase). It counts as cell-based. As to conditions: CHO cell line transfected with human V2 receptor; [Arg8]-vasopressin at EC50; compounds of the invention (Table 1A); read-out: IC50 hV2. How it is done: (§1) The identification of agonists and antagonists of the V1a and V2 vasopressin receptors from humans, rats and dogs as well as the quantification of the activity of the compounds of the invention is carried out using recombinant cell lines. These cell lines originally derive from a hamster's ovary epithelial cell (Chinese Hamster Ovary, CHO K1, ATCC: American Type Culture Collection, Manassas, Va. 20108, USA). The test cell lines constitutively express the human, rat or dog V1a or V2 receptors. In case of the […] V1a receptors, cells are also stably transfected with a modified form of the calcium-sensitive photoproteins aequorin (human and rat V1a) or obelin (dog V1a), which, after reconstitution with the cofactor coelenterazine, emit light when there are increases in free calcium concentrations [Rizzuto R, Simpson A W, Brini M, Pozzan T, Nature 358, 325-327 (1992); Illarionov B A, Bondar V S, Illarionova V A, Vysotski E S, Gene 153 (2), 273-274 (1995)]. The resulting vasopressin receptor cells react to stimulation of the recombinantly expressed V1a receptors by intracellular release of calcium ions, which can be quantified by the resulting photoprotein luminescence. The Gs-coupled V2 receptors are stably transfected into cell lines expressing the gene for firefly luciferase under control of a CRE-responsible promoter. Activation of V2 receptors induces the activation of the CRE-responsive promoter via cAMP increase, thereby inducing the expression of firefly luciferase. The light emitted by photoproteins of V1a cell lines as well as the light emitted by firefly luciferase of V2 cell lines corresponds to the activation or inhibition of the respective vasopressin receptor. The bioluminescence of the cell lines is detected using a suitable luminometer [Milligan G, Marshall F, Rees S, Trends in Pharmacological Sciences 17, 235-237 (1996)].
On the day before the assay, the cells are plated out in culture medium (DMEM/F12, 2% FCS, 2 mM glutamine, 10 mM HEPES) in 384-well microtiter plates and kept in a cell incubator (96% humidity, 5% v/v CO2, 37° C.). […] Upon addition of the cell lysis reagent Triton and the substrate luciferin, luminescence of firefly luciferase is measured in a luminometer.
(§2) Table 1A below lists individual IC50 values for the compounds of the invention (including diastereomeric mixtures as well as separated, enantiopure diastereomers) that were obtained from cell lines transfected with the human V1a or V2 receptor: […]

In another assay the target is T2, human V1a receptor (Homo sapiens, UniProt P37288).
T2 construct: expressed in transfected cells; host or cells: CHO K1 (ATCC), also stably transfected with modified aequorin
As to the kind of experiment: Cellular in vitro assay for determining vasopressin receptor activity, V1a receptor cell line (photoprotein luminescence). As to conditions: CHO cell line transfected with human V1a receptor; [Arg8]-vasopressin at EC50; compounds of the invention (Table 1A); read-out: IC50 hV1a. It counts as cell-based. How it is done:
as §1
On the day before the assay, the cells are plated out in culture medium (DMEM/F12, 2% FCS, 2 mM glutamine, 10 mM HEPES, 5 μg/ml coelenterazine) in 384-well microtiter plates and kept in a cell incubator (96% humidity, 5% v/v CO2, 37° C.). On the day of the assay, test compounds in various concentrations are placed for 10 minutes in the wells of the microtiter plate before the agonist [Arg^8]-vasopressin at EC50 concentration is added. The resulting light signal is measured immediately in the luminometer.
as §2

pIC50: −log10 of the molar value.

T1 sequence (P30518 whole entry): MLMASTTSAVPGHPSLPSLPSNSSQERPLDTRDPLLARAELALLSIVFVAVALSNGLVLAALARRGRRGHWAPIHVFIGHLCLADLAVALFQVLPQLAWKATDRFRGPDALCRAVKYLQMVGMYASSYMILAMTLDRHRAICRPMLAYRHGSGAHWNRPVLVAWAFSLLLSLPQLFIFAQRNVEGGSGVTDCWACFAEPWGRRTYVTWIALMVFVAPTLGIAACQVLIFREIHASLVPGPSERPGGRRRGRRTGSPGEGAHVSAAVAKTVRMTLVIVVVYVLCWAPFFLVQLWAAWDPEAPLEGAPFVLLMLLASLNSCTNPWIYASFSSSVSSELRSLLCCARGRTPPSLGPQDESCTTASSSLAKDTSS
T2 sequence (P37288 whole entry): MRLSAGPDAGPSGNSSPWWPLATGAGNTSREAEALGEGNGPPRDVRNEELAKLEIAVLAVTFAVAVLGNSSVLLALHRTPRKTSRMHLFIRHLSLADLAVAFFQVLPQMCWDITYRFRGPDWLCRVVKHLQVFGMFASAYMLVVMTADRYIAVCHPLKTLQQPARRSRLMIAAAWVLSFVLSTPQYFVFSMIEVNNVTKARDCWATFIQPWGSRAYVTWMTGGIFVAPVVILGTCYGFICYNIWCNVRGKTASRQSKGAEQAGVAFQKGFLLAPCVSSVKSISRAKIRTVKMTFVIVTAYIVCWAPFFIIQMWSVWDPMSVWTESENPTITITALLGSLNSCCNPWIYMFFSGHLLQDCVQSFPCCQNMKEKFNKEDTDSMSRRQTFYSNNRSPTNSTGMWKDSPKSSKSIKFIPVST

Usually pIC50 stands for −log10 of the IC50, conventionally taken in molar units. On to `CC(O)c1nc(Cn2nc(-c3ccc(Cl)cc3)n(C[C@H](O)C(F)(F)F)c2=O)nn1-c1cccc(Cl)c1Cl` (single isomer, unassigned) [Example 63], for which the figures for the negative-log IC50 (pIC50) at human V2 receptor and at human V1a receptor were 8.72 and 7.29, respectively. In the case of `CC(O)c1nc(Cn2nc(-c3ccc(Cl)cc3)n(C[C@H](O)C(F)(F)F)c2=O)nn1-c1ccccc1F` (mixture of isomers) [Example 40, 5-(4-Chlorophenyl)-2-({1-(2-fluorophenyl)-5-[(1RS)-1-hydroxyethyl]-1H-1,2,4-triazol-3-yl}-methyl)-4-[(2S)-3,3,3-trifluoro-2-hydroxypropyl]-2,4-dihydro-3H-1,2,4-triazol-3-one], the negative-log IC50 (pIC50) is 8.14 on human V2 receptor and 8.82 on human V1a receptor. Consider `CC(O)c1nc(Cn2nc(-c3ccc(Cl)cc3)n(C[C@H](O)C(F)(F)F)c2=O)nn1-c1cccc(F)c1F` (mixture of isomers) [Example 64, 5-(4-Chlorophenyl)-2-({1-(2,3-difluorophenyl)-5-[(1RS)-1-hydroxyethyl]-1H-1,2,4-triazol-3-yl}-methyl)-4-[(2S)-3,3,3-trifluoro-2-hydroxypropyl]-2,4-dihydro-3H-1,2,4-triazol-3-one], for which the negative-log IC50 (pIC50) on human V2 receptor is 8.29; on human V1a receptor, 8.09. Consider `CC(O)c1nc(Cn2nc(-c3ccc(Cl)cc3)n(C[C@H](O)C(F)(F)F)c2=O)nn1-c1cccc(C(F)F)c1` (single isomer, unassigned) [Example 20], for which the negative logarithm of the IC50 (pIC50) was 9.10 at human V2 receptor and 8.42 at human V1a receptor.

As to `COc1ccc(F)cc1-n1nc(Cn2nc(-c3ccc(Cl)cc3)n(C[C@H](O)C(F)(F)F)c2=O)nc1C(C)O` (single isomer, unassigned) [Example 39], the pIC50 at human V2 receptor was 8.46; at human V1a receptor, 8.82. For `CC(O)c1nc(Cn2nc(-c3ccc(Cl)cc3)n(C[C@H](O)C(F)(F)F)c2=O)nn1-c1ccc(F)cc1Cl` (single isomer, unassigned) [Example 35], the pIC50 at human V2 receptor was 8.80; at human V1a receptor, 9.30. Taken in the same sequence, the figures for `CC(O)c1nc(Cn2nc(-c3ccc(Cl)cc3)n(C[C@H](O)C(F)(F)F)c2=O)nn1-c1ccccc1C(F)(F)F` (single isomer, unassigned) [Example 73] were 8.15 and 8.96. Consider `CC(O)c1nc(Cn2nc(-c3ccc(Cl)cc3)n(C[C@H](O)C(F)(F)F)c2=O)nn1-c1cc(F)ccc1Cl` (single isomer, unassigned) [Example 60], for which the pIC50 on human V2 receptor is 8.28. Regarding `COc1ccccc1-n1nc(Cn2nc(-c3ccc(Cl)cc3)n(C[C@H](O)C(F)(F)F)c2=O)nc1C(C)O` (single isomer, unassigned) [Example 11], the pIC50 is 9.52 at human V2 receptor and 9.40 on human V1a receptor. Taken in the same sequence, the figures for `CC(O)c1nc(Cn2nc(-c3ccc(Cl)cc3)n(C[C@H](O)C(F)(F)F)c2=O)nn1-c1cccc(Cl)c1F` (single isomer, unassigned) [Example 53] were 8.74 and 8.10.

Regarding `CC(O)c1nc(Cn2nc(-c3ccc(Cl)cc3)n(C[C@H](O)C(F)(F)F)c2=O)nn1-c1cccc(C(F)F)c1` (single isomer, unassigned) [Example 21], the pIC50 on human V2 receptor is 8.66; at human V1a receptor it was 7.24.

On to `COc1ccc(F)cc1-n1nc(Cn2nc(-c3ccc(Cl)cc3)n(C[C@H](O)C(F)(F)F)c2=O)nc1C(C)O` (single isomer, unassigned) [Example 38], for which the negative logarithm of the IC50 (pIC50) at human V2 receptor is 9.05; at human V1a receptor it was 9.22. Consider `CC(O)c1nc(Cn2nc(-c3ccc(Cl)cc3)n(C[C@H](O)C(F)(F)F)c2=O)nn1-c1cccc(OC(F)F)c1` (single isomer, unassigned) [Example 57], for which the pIC50 was 8.09 at human V2 receptor and 7.42 at human V1a receptor. For `CC(O)c1nc(Cn2nc(-c3ccc(Cl)cc3)n(C[C@H](O)C(F)(F)F)c2=O)nn1-c1cc(Cl)ccc1Cl` (single isomer, unassigned) [Example 51], in that order: 7.65 and 8.52. Take `O=c1n(Cc2nc(CO)n(-c3cc(F)cc(F)c3)n2)nc(-c2ccc(Cl)cc2)n1C[C@H](O)C(F)(F)F` [Example 7, 5-(4-Chlorophenyl)-2-{[1-(3,5-difluorophenyl)-5-(hydroxymethyl)-1H-1,2,4-triazol-3-yl]methyl}-4-[(2S)-3,3,3-trifluoro-2-hydroxypropyl]-2,4-dihydro-3H-1,2,4-triazol-3-one]: the pIC50 at human V2 receptor was 8.59; on human V1a receptor, 8.12. Taken in the same sequence, the figures for `CCc1ccccc1-n1nc(Cn2nc(-c3ccc(Cl)cc3)n(C[C@H](O)C(F)(F)F)c2=O)nc1C(C)O` (single isomer, unassigned) [Example 33] were 8.64 and 8.80. Regarding `CC(O)c1nc(Cn2nc(-c3ccc(Cl)cc3)n(C[C@H](O)C(F)(F)F)c2=O)nn1-c1cccc(Cl)c1F` (single isomer, unassigned) [Example 54], the pIC50 is 8.80 on human V2 receptor and 7.40 at human V1a receptor.

Take `CC(O)c1nc(Cn2nc(-c3ccc(Cl)cc3)n(C[C@H](O)C(F)(F)F)c2=O)nn1-c1cccc(F)c1F` (single isomer, unassigned) [Example 66]: the negative-log IC50 (pIC50) at human V2 receptor was 8.72; at human V1a receptor it was 8.40. For `O=c1n(Cc2nc(CO)n(-c3ccccc3C(F)(F)F)n2)nc(-c2ccc(Cl)cc2)n1C[C@H](O)C(F)(F)F` [Example 8, 5-(4-Chlorophenyl)-2-({5-(hydroxymethyl)-1-[2-(trifluoromethyl)phenyl]-1H-1,2,4-triazol-3-yl}-methyl)-4-[(2S)-3,3,3-trifluoro-2-hydroxypropyl]-2,4-dihydro-3H-1,2,4-triazol-3-one], in that order: 7.97 and 8.92. With `CC(O)c1nc(Cn2nc(-c3ccc(Cl)cc3)n(C[C@H](O)C(F)(F)F)c2=O)nn1-c1ccccc1C(F)(F)F` (single isomer, unassigned) [Example 74], the negative logarithm of the IC50 (pIC50) on human V2 receptor was 7.61; on human V1a receptor, 8.66. Taken in the same sequence, the figures for `CC(O)c1nc(Cn2nc(-c3ccc(Cl)cc3)n(C[C@H](O)C(F)(F)F)c2=O)nn1-c1cc(F)ccc1Cl` (mixture of isomers) [Example 58, 2-({1-(2-Chloro-5-fluorophenyl)-5-[(1RS)-1-hydroxyethyl]-1H-1,2,4-triazol-3-yl}methyl)-5-(4-chlorophenyl)-4-[(2S)-3,3,3-trifluoro-2-hydroxypropyl]-2,4-dihydro-3H-1,2,4-triazol-3-one] were 8.82 and 9.70.

With `CC(O)c1nc(Cn2nc(-c3ccc(Cl)cc3)n(C[C@H](O)C(F)(F)F)c2=O)nn1-c1cc(F)cc(Cl)c1` (mixture of isomers) [Example 13, 2-({1-(3-Chloro-5-fluorophenyl)-5-[(1RS)-1-hydroxyethyl]-1H-1,2,4-triazol-3-yl}methyl)-5-(4-chlorophenyl)-4-[(2S)-3,3,3-trifluoro-2-hydroxypropyl]-2,4-dihydro-3H-1,2,4-triazol-3-one], the results for the pIC50 at human V2 receptor and at human V1a receptor were 8.85 and 8.21, respectively.

Consider `CC(O)c1nc(Cn2nc(-c3ccc(Cl)cc3)n(C[C@H](O)C(F)(F)F)c2=O)nn1-c1cccc(C(F)(F)F)c1` (single isomer, unassigned) [Example 24], for which the negative-log IC50 (pIC50) was 8.70 at human V2 receptor and 6.92 on human V1a receptor. On to `CC(O)c1nc(Cn2nc(-c3ccc(Cl)cc3)n(C[C@H](O)C(F)(F)F)c2=O)nn1-c1cc(Cl)cc(Cl)c1` (single isomer, unassigned) [Example 47], for which the pIC50 on human V2 receptor was 8.43; at human V1a receptor, 7.72.

Regarding `CC(O)c1nc(Cn2nc(-c3ccc(Cl)cc3)n(C[C@H](O)C(F)(F)F)c2=O)nn1-c1cccc(F)c1Cl` (single isomer, unassigned) [Example 68], the results for the negative-log IC50 (pIC50) at human V2 receptor and on human V1a receptor were 8.89 and 8.48, respectively.

As to `CC(O)c1nc(Cn2nc(-c3ccc(Cl)cc3)n(C[C@H](O)C(F)(F)F)c2=O)nn1-c1cc(F)ccc1Cl` (single isomer, unassigned) [Example 59], on human V2 receptor, the pIC50 is 8.62.
